Assay results published in patent US20250275995A1, “NICOTINAMIDE RIBOSIDE DOSAGE REGIMEN FOR TREATING PARKINSON'S DISEASE” (VESTLANDETS INNOVASJONSSELSKAP AS (VIS), priority 2022, published 2025).

What was measured:
blood NAD^+ levels = experiment: NAD-brain pharmacokinetic study: whole blood NAD+ response; format: in vivo, human
Procedure: The NAD-brain study performs a parallel assessment of NAD replenishment therapy pharmacokinetics in the blood and brain of healthy human subjects and subjects with Parkinson's disease (PD). A total of 10 healthy individuals (5 men and 5 women) and 10 individuals with PD (5 men and 5 women) undergo repeated blood sampling and 31P-MRS brain scans during two 20-day periods, each of which starts with 8 days of daily intake of NR 600 mg×2, or NMN 600 mg×2. The two 20-day period is 14 days apart to allow for washout of the previous compound. Blood is analyzed for NR and NAD-metabolites using HPLC-MS. By this approach, we measured the simultaneous change in NAD-metabolism overtime in blood and brain and establish blood and brain pharmacokinetics for NAD replenishment therapy in humans.
NR (Niagen®, Chromadex) at a dose of 600 mg×2 daily). NMN (Restorin®, from Seragon Pharmaceutics, or MIB-626 from Metro International Biotech) at a dose of 600 mg×2 daily.
• At screening, participants are assessed for eligibility, inclusion/exclusion criteria, medical history and concomitant medication is recorded, and informed consent signed. • The NAD-brain study performs a parallel assessment of NAD replenishment therapy pharmacokinetics in the blood and brain of healthy human subjects and subjects with Parkinson's disease (PD). Healthy individuals and individuals with PD undergo repeated blood sampling and 31P-MRS brain scans during two 20-day periods, each of which starts with 8 days of daily intake of NR 600 mg×2, or NMN 600 mg×2 (Table 10). • For each 20-day period the testing (i.e., scanning and blood draw) frequency is shown in Table 10, below. The two 20-day periods are 14 days apart to allow for washout of the previous compound.
Blood is analyzed for NR and NAD-metabolites using HPLC-MS metabolomics. Snap-frozen whole blood is used for the analysis of NAD^+. Blood is drawn from the participant in EDTA tube (VACUETTE® TUBE 2 ml K2E K2EDTA). The EDTA tube is gently inverted at least 10 times without shaking; 8×200 μl of blood from the EDTA tube is aliquoted into 8×0.5 ml micro tubes; these are closed, and all the micro tubes are immerse simultaneously in liquid nitrogen within 2 min from when blood has started flowing into the EDTA tube; then transferred frozen to −80° C. freezer for storage; stored at −80C in freezer-compatible cardboard or plastic storage boxes; and shipped on dry ice.
This is a pharmacokinetic (PK) study where 6 healthy individuals (3 male and 3 female): • 1) Received NR 1200 mg daily (600 mg×2) for 8 days, followed by an additional 11 days follow up, while undergoing serial blood and brain NAD-measurement. • 2) Received NMN 1200 mg daily (600 mg×2) for 8 days, followed by an additional 11 days follow up, while undergoing serial blood and brain NAD-measurement.
The individuals were mixed, so that in stage-1 three individuals received NR and three individuals received NMN, then in stage-2 they switched (Cross-over design). There were almost three weeks (20 days) of washout between the last dose of the first compound, and before the first dose of the second compounds.

brain NAD levels = experiment: NAD-brain pharmacokinetic study: brain NAD by 31P-MRS; format: in vivo, human; details: 11 days after last dose, 1200 mg daily for 8 days
Procedure: • At screening, participants are assessed for eligibility, inclusion/exclusion criteria, medical history and concomitant medication is recorded, and informed consent signed. • The NAD-brain study performs a parallel assessment of NAD replenishment therapy pharmacokinetics in the blood and brain of healthy human subjects and subjects with Parkinson's disease (PD). Healthy individuals and individuals with PD undergo repeated blood sampling and 31P-MRS brain scans during two 20-day periods, each of which starts with 8 days of daily intake of NR 600 mg×2, or NMN 600 mg×2 (Table 10). • For each 20-day period the testing (i.e., scanning and blood draw) frequency is shown in Table 10, below. The two 20-day periods are 14 days apart to allow for washout of the previous compound. This is a pharmacokinetic (PK) study where 6 healthy individuals (3 male and 3 female): • 1) Received NR 1200 mg daily (600 mg×2) for 8 days, followed by an additional 11 days follow up, while undergoing serial blood and brain NAD-measurement. • 2) Received NMN 1200 mg daily (600 mg×2) for 8 days, followed by an additional 11 days follow up, while undergoing serial blood and brain NAD-measurement. The individuals were mixed, so that in stage-1 three individuals received NR and three individuals received NMN, then in stage-2 they switched (Cross-over design). There were almost three weeks (20 days) of washout between the last dose of the first compound, and before the first dose of the second compounds. In the brain, total NAD (NAD^++NADH) levels were measured by 31P-MRS as previously described^19. […] 19 Brakedal, B. et al. The […] study: A randomized phase I trial of nicotinamide riboside supplementation in Parkinson's disease. Cell Metab 34, 396-407.e6 (2022).

adult humans = details: dosages above 50-100 mg; cited from earlier work

Compound	blood NAD^+ levels (blood NAD^+ levels; 1200 mg daily (600 mg×2) for 8 days, 6 healthy individuals)	day of maximal NAD levels in the blood (blood NAD^+ levels; 1200 mg daily for 8 days, last dose morning of day 8)	plateau of blood NAD^+ levels (blood NAD^+ levels; after 8 days of precursor intake, 1200 mg daily)	NAD levels at day 19 (brain NAD levels)	flushing with NAD precursor supplementation (adult humans)
NC(=O)c1ccc[n+]([C@@H]2O[C@H](COP(=O)([O-])O)[C@@H](O)[C@H]2O)c1 [NMN, Nicotinamide Mononucleotide]	increased in all individuals	8 days	did not plateau after 8 days	returned to baseline by day 19	
O=C(O)c1cccnc1 [nicotinic acid]					painful flushing
